Assay results reported in patent publication US20130209550A1, “Anti-Viral Azide Containing Compounds” (LIFE TECHNOLOGIES CORPORATION, priority 2010, published 2013).

Assays:
[1] = system: Nuclear-GFP BacMam 2.0 Virus (baculovirus); experiment: Infectivity of PTM analog-labeled Nuclear-GFP BacMam baculovirus in U2-OS cells; format: cell-based; settings: virus labeled in Sf9 cells with 50 uM analog; U2-OS cells incubated overnight with labeled virus; FIG. 5
Description: Inhibition of insect cell baculovirus infectivity with azido fatty acid analogs: The BacMam system uses a modified insect cell virus (baculovirus) as a vehicle to efficiently deliver and express genes in mammalian cells. A Nuclear-GFP BacMam 2.0 expression system (Invitrogen, C10602) was used as a model to determine if PTM analog labeling of the virus would affect mammalian cell infectivity. Viruses were labeled with various PTM analogs and used to infect mammalian cells. Infectivity was determined by the expression of nuclear-GFP, as viral entry into the cell is required for expression of GFP protein, […]
Characterization of BacMam virus production: To verify, quantitate, and normalize the amount of enriched viruses obtained from insect cell supernatants, samples of each virus were lysed in SDS sample preparation buffer (SPB), sonicated with a probe tip sonicator, and heated at 90C to completely dissolve the viral proteins. Viral protein concentrations of the lysates were then determined. […]
Mammalian cell infection protocol: To determine if the PTM analog-labeled viruses retain the ability to infect mammalian cells, 50,000 U2-OS cells (human osteosarcoma cell line) were plated onto a 6 well-chamber glass bottom plate. […] The following day cells were imaged on AMG EVOS fluorescence microscope at 10× or 20× magnification using both white light and GFP filters (FIG. 5). […]

[2] = system: HIV; experiment: Infectivity of azide-labeled HIV, luciferase reporter assay on TZM/BI reporter cell line; format: cell-based; settings: HIVNL4-3 labeled in CEMx174 cells; virus incubated 12 hours on TZM/BI; single cycle replication system; two luciferase reagents; FIGS. 3 and 4
Description: CEMx174 cells were transfected with HIVNL4-3 in a T-150 flask and the virus production was monitored by reverse transcriptase activity until peak virus production occurred (usually 7 to 9 days post transfection). Prior to transfection, the CEMx174 cells were spiked with the following azide-modified biomolecules: 15-azidopentadecanoic acid (50-100 μM), 12-azidododecanoic acid (50-100 μM), tetraacetylated N-azidoacetylgalactosamine (20-40 μM), and tetraacetylated N-azidoacetyl-D-mannosamine (20-40 μM).
Labeled virus was also obtained from the transfected cells. More specifically, virus-containing supernatants were collected and virus was purified through 20% sucrose as previously described (Graham, D. R. et al., Proteomics 2008, 8:4919-30). The purified virus was then mixed with the CLICK-IT® detection reagent, tetramethylrhodamine (TAMRA) alkyne and the CLICK-IT® Protein Reaction Buffer Kit (Invitrogen, Carlsbad, Calif.). Virus samples were run on a one-dimensional gel to reveal azide-labeled viral proteins (FIG. 2). […]
To examine the effect of the azide-modified biomolecules on the innate biology of the virus, the azide-labeled virus from the transfected cells was isolated and tested in cell infection studies. […] Viral infectivity was determined by measuring cellular luciferase activities with two different luciferase reagents.

| Structure (SMILES) | nuclear-GFP expression (viral entry) [1] | impact on the infectivity of the virus (cellular luciferase activity) [2] |
| --- | --- | --- |
| [N-]=[N+]=NCCCCCCCCCCCCCCC(=O)O [15-azidopentadecanoic acid] | no nuclear-GFP expression | – |
| [N-]=[N+]=NCCCCCCCCCCCC(=O)O [12-azidododecanoic acid] | no nuclear-GFP expression | profound impact on the infectivity of the virus |
